In patent US20100048482A1, “COMPOSITIONS AND METHODS FOR MODULATING EPSILON PROTEIN KINASE C-MEDIATED CYTOPROTECTION” (Board of Trustees of the Leland Stanford Junior University, priority 2008, published 2010):
Entries after “also recorded” stand apart in the source; their conditions may differ. Ends that are not written are not given here.

Assays:
εPKC = molecular target: T1, εPKC (Rattus norvegicus, UniProt P09216); assay: IR-induced mitochondrial translocation of εPKC (western blot of heart mitochondrial fraction)
T1 construct: Rat heart ventricles were removed from the cannula and homogenized; from tissue; host or cells: Wistar rat heart ventricle; mitochondrial, IMM or plasma membrane fractions
T1 sequence (P09216 1-737): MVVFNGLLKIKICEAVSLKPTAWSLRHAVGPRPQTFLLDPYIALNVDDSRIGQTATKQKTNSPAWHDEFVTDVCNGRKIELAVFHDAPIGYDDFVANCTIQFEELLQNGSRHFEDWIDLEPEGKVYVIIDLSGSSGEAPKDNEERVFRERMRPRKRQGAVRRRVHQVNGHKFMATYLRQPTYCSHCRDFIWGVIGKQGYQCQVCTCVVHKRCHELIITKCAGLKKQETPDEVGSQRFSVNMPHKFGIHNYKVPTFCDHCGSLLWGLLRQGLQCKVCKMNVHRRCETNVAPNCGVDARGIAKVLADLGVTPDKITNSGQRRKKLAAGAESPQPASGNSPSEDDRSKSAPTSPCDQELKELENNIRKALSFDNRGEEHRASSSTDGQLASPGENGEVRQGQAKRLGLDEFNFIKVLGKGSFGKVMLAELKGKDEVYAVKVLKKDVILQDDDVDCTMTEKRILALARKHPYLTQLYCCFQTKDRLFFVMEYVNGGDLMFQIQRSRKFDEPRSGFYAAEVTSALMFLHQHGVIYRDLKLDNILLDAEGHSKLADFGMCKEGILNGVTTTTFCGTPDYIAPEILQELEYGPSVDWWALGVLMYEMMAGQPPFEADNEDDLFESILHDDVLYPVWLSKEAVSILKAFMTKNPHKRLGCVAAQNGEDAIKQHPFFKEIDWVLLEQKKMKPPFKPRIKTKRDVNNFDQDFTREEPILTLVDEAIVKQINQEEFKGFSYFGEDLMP
Procedure: (§1) Rat hearts (Wistar, 250-300 g) were excised and cannulated on a Langendorff apparatus via the aorta. Briefly, retrograde perfusion was carried out with a constant coronary flow rate of 10 ml/min with oxygenated Krebs-Henseleit buffer containing 120 mM NaCl, 5,8 mM KCl, 25 mM NaHCO3, […], 1.2 mM MgSO4, 1.2 mM CaCl2, and 10 mM dextrose, pH 7.4 at 37° C. After a 20 min equilibration period, hearts were subjected to a 35 min of no-flow, global ischemia followed by 15 min of reperfusion. Control hearts were perfused with normoxic Krebs buffer and were time-matched for the experimental period. […] At the end of the 15 mins reperfusion period, hearts were rapidly transferred to ice-cold homogenization buffer and subcellular fractions separated by differential centrifugation as described below.
Rat heart ventricles were removed from the cannula and homogenized in ice-cold mannitol-sucrose buffer (210 mM mannitol, 70 mM sucrose, 5 mM MOPS and 1 mM EDTA containing Sigma Protease Inhibitor 1 and Sigma Phosphatase Inhibitors 1 and 2, added per manufacturer's instructions) The resultant homogenate was filtered through gauze and centrifuged at 700 g for 5 minutes to pellet nuclei and cellular debris. […] Mitochondrial purity was also assessed by electron microscopic analysis. Protein concentration was determined by Bradford assay and 10 μg protein separated on a 12% SDS-PAGE gel and transferred to nitrocellulose. PKC translocation was measured using antibodies raised against εPKC and δPKC with mitochondrial (ANT) and cytosolic (GAPDH) markers used to ensure equal sample loading of the mitochondrial and cytosolic fractions, respectively. […]
During reperfusion, ischemia-induced cell damage was determined by measuring the activity of creatine phosphokinase (CPK) in the coronary perfusate, carried out using a standard assay kit (Equal Diagnostics, CT, USA). […] Translocation of εPKC and the related isoform δPKC to the mitochondria and plasma membrane was determined by western blotting using εPKC and δPKC antibodies (Santa Cruz Biotechnology) (FIG. 5C). […]

[1] = test system: Langendorff perfused rat heart; assay: Ex vivo Langendorff perfused rat heart ischemia-reperfusion, creatine phosphokinase (CPK) release; settings: for effect on IR-induced CPK release / IR injury: ex vivo IR
Procedure: In accordance with a well-established ex vivo rat heart model for ischemia-reperfusion (see, e.g., U.S. Publication Nos. 20080167247, 20080153926, 20070299012, and 20060293237, which are herein incorporated by reference) and the method described in Example 1, hearts were removed from animals (rats) and subjected to a normoxia or an IR protocol, both depicted in FIG. 1A. The normoxia regimen comprised exposing hearts to 70 minutes of a normal oxygen state. The IR (ischemia/reperfusion) regimens comprised subjecting hearts to 20 minutes of normoxia, followed by 35 minutes of ischemia, followed by 15 minutes of reperfusion. […] The amount of necrotic cell death was then determined by measuring the release of creatine phosphokinase (CPK) into the buffer perfusate during reperfusion, which served as an indicator of ischemic damage.
as §1
Necrotic damage was determined by measurement of the release of the cardiac myocyte cytosolic enzyme, creatine phosphokinase (CPK), into the effluent (FIG. 1B). The levels are expressed in arbitrary CPK units.
Isolated rat hearts were perfused with oxygenated Krebs-Henseleit solution comprised of NaCl ([…]); KCl ([…]); NaHCO3 ([…]); NaH2O4 ([…]); MgSO4 (1.2 nmol/L); CaCl2 (1.0 nmol/L); and dextrose (10 nmol/L), pH 7.4 at 37 C. After a 10 minute equilibration period, the hearts were treated with the ψεHSP90 peptide or control buffer solution. As depicted in FIG. 5A, Perfusion was maintained at a constant flow of 10 mL/min with Krebs-Henseleit solution containing 1 μM of the appropriate peptide. The Langendorff method employs retrograde flow […] and into the coronary arteries, bypassing the pulmonary arteries. To induce global ischemia, flow was interrupted for 35 minutes. After the ischemic event, the hearts were reperfused with Krebs-Henseleit solution for 15 minutes.
During reperfusion, ischemia-induced cell damage was determined by measuring the activity of creatine phosphokinase (CPK) in the coronary perfusate, carried out using a standard assay kit (Equal Diagnostics, CT, USA). The ψεHSP90 peptide was perfused in Langendorf mode for 10 minutes before and 10 minutes after the ischemic period (1 micromolar) and myocardial injury was assayed by the release of CPK into the effluent during reperfusion (FIG. 5B). Similar to the previous results, hearts that were subjected to IR had high levels of CPK in the effluent; however, perfusion with ψεHSP90 peptide decreased CPK release by 47% (n4; p<0.05; FIG. 5B). Translocation of εPKC and the related isoform δPKC to the mitochondria and plasma membrane was determined by western blotting using εPKC and δPKC antibodies (Santa Cruz Biotechnology) (FIG. 5C). […] Physical interaction between PKCε and HSP90 was determined by co-immunoprecipitation of PKCε and HSP90 in the mitochondrial fraction in hearts exposed to normoxia or IR in the absence or presence of 1 μM ψεHSP90 (FIG. 5D).

recombinant human εPKC = molecular target: T2, recombinant human εPKC (Homo sapiens, UniProt Q02156); assay: In vitro mitochondrial translocation assay, recombinant GST-εPKC with isolated rat cardiac mitochondria; assay type: biochemical; settings: for mitochondrial translocation of εPKC in the absence of phospholipids (PS/DAG): 1 μM ψεHSP90, hydrogen peroxide present, no PS/DAG, FIG. 6B lane 5
T2 construct: purchased Cell Signaling Technology
T2 sequence (Q02156 1-737): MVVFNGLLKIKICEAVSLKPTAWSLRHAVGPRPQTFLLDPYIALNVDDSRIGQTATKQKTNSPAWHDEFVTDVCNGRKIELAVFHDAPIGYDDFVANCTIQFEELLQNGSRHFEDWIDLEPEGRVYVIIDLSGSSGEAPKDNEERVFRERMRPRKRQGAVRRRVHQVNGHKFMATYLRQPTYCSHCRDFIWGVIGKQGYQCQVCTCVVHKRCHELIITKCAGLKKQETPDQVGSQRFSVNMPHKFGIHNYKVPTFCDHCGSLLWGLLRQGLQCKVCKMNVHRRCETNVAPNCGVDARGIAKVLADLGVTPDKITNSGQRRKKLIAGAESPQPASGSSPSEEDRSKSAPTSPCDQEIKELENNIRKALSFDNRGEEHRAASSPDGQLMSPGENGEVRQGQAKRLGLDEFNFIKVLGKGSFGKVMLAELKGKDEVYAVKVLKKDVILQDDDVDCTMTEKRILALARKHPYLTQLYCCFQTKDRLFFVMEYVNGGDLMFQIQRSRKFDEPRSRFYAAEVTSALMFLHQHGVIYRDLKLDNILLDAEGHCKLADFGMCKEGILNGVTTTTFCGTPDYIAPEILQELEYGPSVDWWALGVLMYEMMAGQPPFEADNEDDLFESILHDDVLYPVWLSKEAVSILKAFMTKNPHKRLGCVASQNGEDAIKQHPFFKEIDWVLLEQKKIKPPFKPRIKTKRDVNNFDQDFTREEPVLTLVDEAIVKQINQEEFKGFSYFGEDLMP
Procedure: An in vitro approach was used to identify cellular components that were important for εPKC translocation to the mitochondria. As described in Example 5, mitochondria were isolated from normoxic hearts and incubated for 20 minutes at 37° C. with purified recombinant GST-tagged εPKC (Cell Signaling Technology Inc,), which was pretreated by different combinations of PKC activation components including phospholipids and hydrogen peroxide (H2O2) in the absence (FIG. 6A) and presence (FIG. 6B) of the ψεHSP90 peptide. Following incubation of PKCε with its activation components, mitochondria were introduced into the εPKC mixture and incubated for an additional 20 minutes, after which the mitochondria were pelleted by centrifugation and then probed with antibodies selective for PKCε and the mitochondrial marker VDAC The use of GST-tagged εPKC allowed the distinction, based on size, between exogenous GST-εPKC and native/endogenous εPKC present in the mitochondria prior to treatment. Rabbit reticulocyte lysate (RRL) was used as an exogenous source of HSP90 as described previously (Scherrer et al., Biochemistry. 1992. 31:7325-7329)
Activation of recombinant εPKC was performed as described in the art. Briefly, recombinant εPKC (5 μl of 10 ng/μl stock) (Cell Signaling Technology) was aliquoted into assay buffer (20 mM Tris HCl, 50 mM KCl, 1 mM DTT, 0.1 mg/ml BSA Mg^2+ (5 mM), ATP (100 μM), pH 7.4) containing different combinations of activation factors including phosphatidylserine/diacylglycerol (1 mM), H2O2 (50 μM) or ψεHSP90 (1 μm) in a final volume of 50 μl . εPKC was activated by incubation in assay buffer at 37° C. for 20 min. Rabbit reticulocyte lysate (RRL) (10 μl) was added to the incubation mixture for 10 minutes after εPKC activation. […] Mitochondria were then spun at 10,000 g×10 min, resuspended in 50 μl sample loading buffer and mitochondrial εPKC levels measured by western blotting using VDAC as a loading control. […]

PKCε = molecular target: T3, PKCε (Rattus norvegicus, UniProt P09216); assay: PKCε translocation to plasma membrane fraction after IR (western blot); settings: 1 μM ψεHSP90
T3 construct: Rat heart ventricles were removed from the cannula and homogenized; from tissue; host or cells: Wistar rat heart ventricle; mitochondrial, IMM or plasma membrane fractions
T3 sequence (P09216 1-737): T1 sequence (P09216 1-737)
Procedure: Rat heart ventricles were removed from the cannula and homogenized in ice-cold mannitol-sucrose buffer (210 mM mannitol, 70 mM sucrose, 5 mM MOPS and 1 mM EDTA containing Sigma Protease Inhibitor 1 and Sigma Phosphatase Inhibitors 1 and 2, added per manufacturer's instructions) The resultant homogenate was filtered through gauze and centrifuged at 700 g for 5 minutes to pellet nuclei and cellular debris. The supernatant was centrifuged at 10,000 g to pellet the mitochondrial-enriched fraction and the supernatant from this fraction centrifuged at 100,000 g to pellet the plasma membrane fraction. […] Mitochondrial purity was also assessed by electron microscopic analysis. Protein concentration was determined by Bradford assay and 10 μg protein separated on a 12% SDS-PAGE gel and transferred to nitrocellulose. PKC translocation was measured using antibodies raised against εPKC and δPKC with mitochondrial (ANT) and cytosolic (GAPDH) markers used to ensure equal sample loading of the mitochondrial and cytosolic fractions, respectively. Densitometry was performed using Image J software (NIH).
During reperfusion, ischemia-induced cell damage was determined by measuring the activity of creatine phosphokinase (CPK) in the coronary perfusate, carried out using a standard assay kit (Equal Diagnostics, CT, USA). […]

δPKC = assay: IR-induced mitochondrial translocation of δPKC (western blot of heart mitochondrial fraction); set-up: species or system rat; settings: 1 μM ψεHSP90
εPKC and HSP90 = molecular target: T4, εPKC and HSP90 (Rattus norvegicus, UniProt P09216); assay: Co-immunoprecipitation of εPKC and HSP90 in heart mitochondrial fraction after IR
T4 construct: 200-500 μg of mitochondrial or cytosolic protein was diluted into 1 ml of IP Lysis Buffer; from tissue; host or cells: Wistar rat heart; mitochondrial (and cytosolic) fraction
T4 sequence (P09216 1-737): T1 sequence (P09216 1-737)
Procedure: Since εPKC and HSP90 are predominately cytosolic proteins, it was expected to observe co-immunoprecipitation of εPKC and HSP90 in the cytosolic fraction following exposure to IR.
200-500 μg of mitochondrial or cytosolic protein was diluted into 1 ml of IP Lysis Buffer (150 mM NaCl, 10 mM Tris-HCl, 5 mM EDTA, 0.1% Triton X-100, pH=7.4, containing Sigma Protease Inhibitor 1 and Sigma Phosphatase Inhibitors 1 and 2). Proteins were incubated with εPKC antibody (2 μg) for 2 hours at 4° C. with inversion mixing. 10 μg of Protein A/G Beads (Santa Cruz Biotechnology) were added and the mixture was incubated overnight at 4° C. with inversion mixing. Beads were then centrifuged, washed 3× in IP Lysis Buffer, then re-suspended in sample buffer. Immunoprecipitated proteins were separated on 10% SDS-PAGE gels. The presence of associated proteins was determined by western blotting using antibodies specific for PKCε HSP90, TOM20 and TIM23. Protein immunoprecipitation was then repeated in reverse (immunoprecipitation with HSP90, TOM20 or TIM23 antibodies followed by western blotting with εPKC antibody). […]

Compound	block of IR-induced translocation of εPKC to the mitochondrial fraction (εPKC; GA 5 μm during reperfusion, n=5, p<0.05)	increase in CPK release ([1]; IR (35 min ischemia, 15 min reperfusion) with 5 μM GA during reperfusion, versus IR alone, n=7, p<0.05)	effect on CPK release in the absence of IR injury ([1]; normoxic hearts, 5 μm or 10 μm GA)	effect on IR-induced CPK release / IR injury ([1]; 1 μM TAT-conjugated peptide)	effect on IR-induced CPK release / IR injury ([1]; 1 μM TAT-conjugated peptide, listed as corresponding sequence from the HSP90 protein)	mitochondrial translocation of εPKC in the absence of phospholipids (PS/DAG) (recombinant human εPKC)	mitochondrial translocation of εPKC in the absence of phospholipids (PS/DAG) (recombinant human εPKC; listed as ψεHSP90)	effect on association/translocation of εPKC with isolated mitochondria in vitro (recombinant human εPKC; 1 μM ψεHSP90, FIG. 6B lanes 2-5)	effect on PKCε translocation to the plasma membrane (PKCε)	effect on PKCδ association with the mitochondria after IR (δPKC)	effect on mitochondrial translocation of PKCε after IR (εPKC; 1 μM ψεHSP90)	higher mitochondrial PKCε levels versus IR group untreated with peptide (εPKC; IR in the presence of 1 μm ψεHSP90 peptide)	effect on IR-induced physical association of PKCε and HSP90 at the mitochondria (εPKC and HSP90; 1 μM ψεHSP90)	increase in IR-induced physical interaction between HSP90 and PKCε (co-immunoprecipitation) (εPKC and HSP90; 1 μM ψεHSP90, mitochondrial fraction)	reduction of IR-induced CPK release ([1]; 1 μM TAT-conjugated peptide, 10 min before ischemia and first 10 min of reperfusion, versus IR alone, p<0.05)
COC1=C2C[C@@H](C)C[C@H](OC)[C@H](O)[C@@H](C)/C=C(\C)[C@H](OC(N)=O)[C@@H](OC)/C=C\C=C(/C)C(=O)NC(=CC1=O)C2=O [GA, geldanamycin]	54%	176%	no effect												
PEDEEEK (not fully specified)				no statistical effect	no effect										
PKDNEER (not fully specified) [ψεHSP90 peptide]				significantly reduced		resulted in translocation of εPKC	sufficient to induce	increased	did not affect	not altered; also recorded: without effect	enhanced	~20%	increased	~4 fold	47%
